Data from US20140120232A1, “ACID TASTE/ACID SMELL-REDUCING AGENT” (T. HASEGAWA CO., LTD., priority 2011, published 2014).

Assay: Sensory evaluation of Vermont drink containing the agent
Conditions: ten panels
Outline: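 Tridecadienal or tridecatrienal isomers added at various concentrations to a Vermont-flavoured drink (apple-cider vinegar, honey, liquid sugar, citric acid, trisodium citrate, 100 mL total). Ten panelists assessed acid taste/acid smell and aldehyde-type off-odour, and the concentration giving the best acid taste/smell quality was selected.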

## CCCCC/C=C/C/C=C/CCC=O [(E,E)-4,7-tridecadienal]
0.005 ppt
  A: number of panels, acid taste/acid smell extreme and cause irritation: 10
  B: number of panels, acid taste/acid smell slightly strong and slightly cause irritation: 0
  C: number of panels, acid taste/acid smell slightly unpleasant: 0
  Flavor judgment: number of panels who judged acid taste/acid smell quality the highest: 0
  N: number of panels, irritation of acid reduced to give a mild acid taste: 0
  X: number of panels, acid taste reduced but piercing odor characteristic to aldehydes unpleasant: 0
0.02 ppt
  A: number of panels, acid taste/acid smell extreme and cause irritation: 10
  B: number of panels, acid taste/acid smell slightly strong and slightly cause irritation: 0
  C: number of panels, acid taste/acid smell slightly unpleasant: 0
  Flavor judgment: number of panels who judged acid taste/acid smell quality the highest: 0
  N: number of panels, irritation of acid reduced to give a mild acid taste: 0
  X: number of panels, acid taste reduced but piercing odor characteristic to aldehydes unpleasant: 0
0.1 ppt
  A: number of panels, acid taste/acid smell extreme and cause irritation: 10
  B: number of panels, acid taste/acid smell slightly strong and slightly cause irritation: 0
  C: number of panels, acid taste/acid smell slightly unpleasant: 0
  Flavor judgment: number of panels who judged acid taste/acid smell quality the highest: 0
  N: number of panels, irritation of acid reduced to give a mild acid taste: 0
  X: number of panels, acid taste reduced but piercing odor characteristic to aldehydes unpleasant: 0
0.2 ppt
  A: number of panels, acid taste/acid smell extreme and cause irritation: 8
  B: number of panels, acid taste/acid smell slightly strong and slightly cause irritation: 2
  C: number of panels, acid taste/acid smell slightly unpleasant: 0
  Flavor judgment: number of panels who judged acid taste/acid smell quality the highest: 0
  N: number of panels, irritation of acid reduced to give a mild acid taste: 0
  X: number of panels, acid taste reduced but piercing odor characteristic to aldehydes unpleasant: 0
0.5 ppt
  A: number of panels, acid taste/acid smell extreme and cause irritation: 6
  B: number of panels, acid taste/acid smell slightly strong and slightly cause irritation: 2
  C: number of panels, acid taste/acid smell slightly unpleasant: 2
  Flavor judgment: number of panels who judged acid taste/acid smell quality the highest: 0
  N: number of panels, irritation of acid reduced to give a mild acid taste: 0
  X: number of panels, acid taste reduced but piercing odor characteristic to aldehydes unpleasant: 0
1 ppb
  A: number of panels, acid taste/acid smell extreme and cause irritation: 0
  B: number of panels, acid taste/acid smell slightly strong and slightly cause irritation: 0
  C: number of panels, acid taste/acid smell slightly unpleasant: 3
  Flavor judgment: number of panels who judged acid taste/acid smell quality the highest: 0
  N: number of panels, irritation of acid reduced to give a mild acid taste: 4
  X: number of panels, acid taste reduced but piercing odor characteristic to aldehydes unpleasant: 3
1 ppt
  A: number of panels, acid taste/acid smell extreme and cause irritation: 0
  B: number of panels, acid taste/acid smell slightly strong and slightly cause irritation: 4
  C: number of panels, acid taste/acid smell slightly unpleasant: 5
  Flavor judgment: number of panels who judged acid taste/acid smell quality the highest: 0
  N: number of panels, irritation of acid reduced to give a mild acid taste: 1
  X: number of panels, acid taste reduced but piercing odor characteristic to aldehydes unpleasant: 0
5 ppt
  A: number of panels, acid taste/acid smell extreme and cause irritation: 0
  B: number of panels, acid taste/acid smell slightly strong and slightly cause irritation: 1
  C: number of panels, acid taste/acid smell slightly unpleasant: 3
  Flavor judgment: number of panels who judged acid taste/acid smell quality the highest: 4
  N: number of panels, irritation of acid reduced to give a mild acid taste: 6
  X: number of panels, acid taste reduced but piercing odor characteristic to aldehydes unpleasant: 0
10 ppb
  A: number of panels, acid taste/acid smell extreme and cause irritation: 0
  B: number of panels, acid taste/acid smell slightly strong and slightly cause irritation: 0
  C: number of panels, acid taste/acid smell slightly unpleasant: 1
  Flavor judgment: number of panels who judged acid taste/acid smell quality the highest: 0
  N: number of panels, irritation of acid reduced to give a mild acid taste: 3
  X: number of panels, acid taste reduced but piercing odor characteristic to aldehydes unpleasant: 6
20 ppt
  A: number of panels, acid taste/acid smell extreme and cause irritation: 0
  B: number of panels, acid taste/acid smell slightly strong and slightly cause irritation: 0
  C: number of panels, acid taste/acid smell slightly unpleasant: 3
  Flavor judgment: number of panels who judged acid taste/acid smell quality the highest: 3
  N: number of panels, irritation of acid reduced to give a mild acid taste: 7
  X: number of panels, acid taste reduced but piercing odor characteristic to aldehydes unpleasant: 0
50 ppb
  A: number of panels, acid taste/acid smell extreme and cause irritation: 0
  B: number of panels, acid taste/acid smell slightly strong and slightly cause irritation: 0
  C: number of panels, acid taste/acid smell slightly unpleasant: 0
  Flavor judgment: number of panels who judged acid taste/acid smell quality the highest: 0
  N: number of panels, irritation of acid reduced to give a mild acid taste: 3
  X: number of panels, acid taste reduced but piercing odor characteristic to aldehydes unpleasant: 7
100 ppt
  A: number of panels, acid taste/acid smell extreme and cause irritation: 0
  B: number of panels, acid taste/acid smell slightly strong and slightly cause irritation: 0
  C: number of panels, acid taste/acid smell slightly unpleasant: 3
  Flavor judgment: number of panels who judged acid taste/acid smell quality the highest: 3
  N: number of panels, irritation of acid reduced to give a mild acid taste: 7
  X: number of panels, acid taste reduced but piercing odor characteristic to aldehydes unpleasant: 0
500 ppt
  A: number of panels, acid taste/acid smell extreme and cause irritation: 0
  B: number of panels, acid taste/acid smell slightly strong and slightly cause irritation: 2
  C: number of panels, acid taste/acid smell slightly unpleasant: 3
  Flavor judgment: number of panels who judged acid taste/acid smell quality the highest: 0
  N: number of panels, irritation of acid reduced to give a mild acid taste: 3
  X: number of panels, acid taste reduced but piercing odor characteristic to aldehydes unpleasant: 2
